Reference: PubChem BioAssay AID1963972 (Molecular Pharmacology Branch, DTP, NCI, 2024)
Blank lines part the entries; values can stand above or below the molecule they belong to.

Tested on: 945468-187-T-J2-PDC spheroids viability
Assay: Anticancer human tumor 945468-187-T-J2-PDC patient-derived rectal carcinoma cell line growth inhibition [PI3K]
Details: spheroids with HUVEC and MSC; for viability, T/C: stronger effect = lower value
How it was run: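 High-throughput combination screen: PI3K inhibitors crossed with targeted small molecules on complex spheroids of tumor cells, HUVEC and MSCs at 37 degrees C, 5% CO2. Top concentration was at or near clinical Cmax (otherwise 10 microM), with half-log decrements.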

[1] = curve of first compound, second compound 0.0316 µM
[2] = curve of first compound, second compound 0.1 µM
[3] = curve of first compound, second compound 0.316 µM
[4] = curve of first compound, second compound 1 µM
[5] = second compound 0.0316 µM, first compound 0.0316 µM
[6] = second compound 0.0316 µM, first compound 0.1 µM
[7] = second compound 0.0316 µM, first compound 0.316 µM
[8] = second compound 0.0316 µM, first compound 1 µM
[9] = second compound 0.0316 µM, first compound 3.16 µM
[10] = second compound 0.0316 µM, first compound 10 µM
[11] = second compound 0.1 µM, first compound 0.0316 µM
[12] = second compound 0.1 µM, first compound 0.1 µM
[13] = second compound 0.1 µM, first compound 0.316 µM
[14] = second compound 0.1 µM, first compound 1 µM
[15] = second compound 0.1 µM, first compound 3.16 µM
[16] = second compound 0.1 µM, first compound 10 µM
[17] = second compound 0.316 µM, first compound 0.0316 µM
[18] = second compound 0.316 µM, first compound 0.1 µM
[19] = second compound 0.316 µM, first compound 0.316 µM
[20] = second compound 0.316 µM, first compound 1 µM
[21] = second compound 0.316 µM, first compound 3.16 µM
[22] = second compound 0.316 µM, first compound 10 µM
[23] = second compound 1 µM, first compound 0.0316 µM
[24] = second compound 1 µM, first compound 0.1 µM
[25] = second compound 1 µM, first compound 0.316 µM
[26] = second compound 1 µM, first compound 1 µM
[27] = second compound 1 µM, first compound 3.16 µM
[28] = second compound 1 µM, first compound 10 µM
[29] = curve of first compound, second compound 3.16 µM
[30] = curve of first compound, second compound 10 µM
[31] = second compound 3.16 µM, first compound 0.0316 µM
[32] = second compound 3.16 µM, first compound 0.1 µM
[33] = second compound 3.16 µM, first compound 0.316 µM
[34] = second compound 3.16 µM, first compound 1 µM
[35] = second compound 3.16 µM, first compound 3.16 µM
[36] = second compound 3.16 µM, first compound 10 µM
[37] = second compound 10 µM, first compound 0.0316 µM
[38] = second compound 10 µM, first compound 0.1 µM
[39] = second compound 10 µM, first compound 0.316 µM
[40] = second compound 10 µM, first compound 1 µM
[41] = second compound 10 µM, first compound 3.16 µM
[42] = second compound 10 µM, first compound 10 µM
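Note: spheroids exposed to compounds for seven days before reading.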

IC50 (curve of first compound, second compound 0.00316 µM): > 10 µM
IC50 (curve of first compound, second compound 0.01 µM): > 10 µM
IC50 [1]: > 10 µM
IC50 [2]: > 10 µM
IC50 [3]: > 10 µM
IC50 [4]: > 10 µM
Structure (SMILES): C#Cc1c(F)ccc2cc(O)cc(-c3ncc4c(N5CC6CCC(C5)N6)nc(OCC56CCCN5CC(F)C6)nc4c3F)c12 (configuration not stated) + CC(Nc1ccc2c(c1)OCCn1cc(N3C(=O)OCC3C(F)F)nc1-2)C(N)=O
viability, T/C (second compound 0.00316 µM, first compound 0.0316 µM): 103%
viability, T/C (second compound 0.00316 µM, first compound 0.1 µM): 86.9%
viability, T/C (second compound 0.00316 µM, first compound 0.316 µM): 87.3%
viability, T/C (second compound 0.00316 µM, first compound 1 µM): 96.7%
viability, T/C (second compound 0.00316 µM, first compound 3.16 µM): 94%
viability, T/C (second compound 0.00316 µM, first compound 10 µM): 96.5%
viability, T/C (second compound 0.01 µM, first compound 0.0316 µM): 75.3%
viability, T/C (second compound 0.01 µM, first compound 0.1 µM): 105%
viability, T/C (second compound 0.01 µM, first compound 0.316 µM): 81.5%
viability, T/C (second compound 0.01 µM, first compound 1 µM): 82.8%
viability, T/C (second compound 0.01 µM, first compound 3.16 µM): 103%
viability, T/C (second compound 0.01 µM, first compound 10 µM): 86.8%
viability, T/C [5]: 94.5%
viability, T/C [6]: 85.7%
viability, T/C [7]: 79.7%
viability, T/C [8]: 88.1%
viability, T/C [9]: 107%
viability, T/C [10]: 103%
viability, T/C [11]: 82.6%
viability, T/C [12]: 81.2%
viability, T/C [13]: 88.7%
viability, T/C [14]: 93.3%
viability, T/C [15]: 108%
viability, T/C [16]: 95.3%
viability, T/C [17]: 77%
viability, T/C [18]: 70.7%
viability, T/C [19]: 76.5%
viability, T/C [20]: 107%
viability, T/C [21]: 81.4%
viability, T/C [22]: 74.4%
viability, T/C [23]: 72%
viability, T/C [24]: 62.4%
viability, T/C [25]: 67.1%
viability, T/C [26]: 68.3%
viability, T/C [27]: 75.3%
viability, T/C [28]: 69.3%

IC50 [1]: 0.667 µM
IC50 [2]: 0.605 µM
IC50 [3]: 0.736 µM
IC50 [4]: 0.685 µM
IC50 [29]: 0.665 µM
IC50 [30]: 0.548 µM
Structure (SMILES): CC1(C)CCC(Nc2ncc(C(F)(F)F)c(-c3c[nH]c4c(P(C)(C)=O)c(C#N)ccc34)n2)CN1 (configuration not stated) + CC(Nc1ncnc2nc[nH]c12)c1cc2cccc(Cl)c2c(=O)n1-c1ccccc1
viability, T/C [5]: 91.5%
viability, T/C [6]: 95.5%
viability, T/C [7]: 77.8%
viability, T/C [8]: 35%
viability, T/C [9]: 30.3%
viability, T/C [10]: 29.3%
viability, T/C [11]: 95.6%
viability, T/C [12]: 92.4%
viability, T/C [13]: 66.3%
viability, T/C [14]: 37.2%
viability, T/C [15]: 33.9%
viability, T/C [16]: 30.5%
viability, T/C [17]: 89.7%
viability, T/C [18]: 86.9%
viability, T/C [19]: 63.7%
viability, T/C [20]: 44.8%
viability, T/C [21]: 35.1%
viability, T/C [22]: 28.1%
viability, T/C [23]: 104%
viability, T/C [24]: 81.5%
viability, T/C [25]: 56.9%
viability, T/C [26]: 40.7%
viability, T/C [27]: 46.3%
viability, T/C [28]: 25.6%
viability, T/C [31]: 92.4%
viability, T/C [32]: 82.4%
viability, T/C [33]: 69.2%
viability, T/C [34]: 38.5%
viability, T/C [35]: 34.9%
viability, T/C [36]: 32.4%
viability, T/C [37]: 125%
viability, T/C [38]: 76.3%
viability, T/C [39]: 60.4%
viability, T/C [40]: 42.8%
viability, T/C [41]: 39%
viability, T/C [42]: 21.5%

IC50 [1]: > 10 µM
IC50 [2]: > 10 µM
IC50 [3]: > 10 µM
IC50 [4]: > 10 µM
IC50 [29]: > 10 µM
IC50 [30]: > 10 µM
Structure (SMILES): CC(C)NCC(C(=O)N1CCN(c2ncnc3c2C(C)CC3O)CC1)c1ccc(Cl)cc1 (configuration not stated) + Cc1nc(NC(=O)N2CCCC2C(N)=O)sc1-c1ccnc(C(C)(C)C(F)(F)F)c1
viability, T/C [5]: 110%
viability, T/C [6]: 138%
viability, T/C [7]: 140%
viability, T/C [8]: 110%
viability, T/C [9]: 108%
viability, T/C [10]: 96.8%
viability, T/C [11]: 111%
viability, T/C [12]: 109%
viability, T/C [13]: 125%
viability, T/C [14]: 103%
viability, T/C [15]: 106%
viability, T/C [16]: 115%
viability, T/C [17]: 99%
viability, T/C [18]: 117%
viability, T/C [19]: 99.7%
viability, T/C [20]: 87.8%
viability, T/C [21]: 119%
viability, T/C [22]: 98.4%
viability, T/C [23]: 106%
viability, T/C [24]: 119%
viability, T/C [25]: 109%
viability, T/C [26]: 88.6%
viability, T/C [27]: 121%
viability, T/C [28]: 98.6%
viability, T/C [31]: 79.6%
viability, T/C [32]: 90.4%
viability, T/C [33]: 103%
viability, T/C [34]: 95.8%
viability, T/C [35]: 81.5%
viability, T/C [36]: 98.2%
viability, T/C [37]: 95.8%
viability, T/C [38]: 76.9%
viability, T/C [39]: 73.6%
viability, T/C [40]: 88.5%
viability, T/C [41]: 93.8%
viability, T/C [42]: 82.5%

Further lines, the molecule ahead of its results:

Structure (SMILES): CC(=O)c1c(C)c2cnc(Nc3ccc(N4CCNCC4)cn3)nc2n(C2CCCC2)c1=O
viability, T/C (compound 0.000316 µM): 105% [middle of 4 runs]
viability, T/C (compound 0.00316 µM): 90.6% [middle of 4 runs]
viability, T/C (compound 0.01 µM): 104% [middle of 4 runs]
IC50 (curve of compound): > 0.1 µM

Structure (SMILES): CC1(C)CCC(CN2CCN(c3ccc(C(=O)NS(=O)(=O)c4ccc(NCC5CCOCC5)c([N+](=O)[O-])c4)c(Oc4cnc5[nH]ccc5c4)c3)CC2)=C(c2ccc(Cl)cc2)C1 + Cc1nc(NC(=O)N2CCCC2C(N)=O)sc1-c1ccnc(C(C)(C)C(F)(F)F)c1
IC50 [1]: > 10 µM
IC50 [2]: > 10 µM
IC50 [3]: > 10 µM
IC50 [4]: > 10 µM
IC50 [29]: > 10 µM
IC50 [30]: > 10 µM
viability, T/C [5]: 101%
viability, T/C [6]: 99.6%
viability, T/C [7]: 121%
viability, T/C [8]: 103%
viability, T/C [9]: 98.7%
viability, T/C [10]: 61.4%
viability, T/C [11]: 118%
viability, T/C [12]: 97.5%
viability, T/C [13]: 116%
viability, T/C [14]: 99.5%
viability, T/C [15]: 110%
viability, T/C [16]: 66.2%
viability, T/C [17]: 113%
viability, T/C [18]: 83.7%
viability, T/C [19]: 108%
viability, T/C [20]: 91.7%
viability, T/C [21]: 80.2%
viability, T/C [22]: 66.6%
viability, T/C [23]: 102%
viability, T/C [24]: 102%
viability, T/C [25]: 82.3%
viability, T/C [26]: 102%
viability, T/C [27]: 100%
viability, T/C [28]: 71.5%
viability, T/C [31]: 81.4%
viability, T/C [32]: 91%
viability, T/C [33]: 72.6%
viability, T/C [34]: 81.2%
viability, T/C [35]: 93.8%
viability, T/C [36]: 59%
viability, T/C [37]: 83.3%
viability, T/C [38]: 76.8%
viability, T/C [39]: 69.8%
viability, T/C [40]: 71.5%
viability, T/C [41]: 75.5%
viability, T/C [42]: 63.7%
